Several values for one entry are separate records, joined by “and”; a condition that tells them apart may be missing. Equal values may be shown once.
Legend:
[1] = test system: rat cortical neuron culture; assay: Cell viability by PrestoBlue after hydrogen peroxide exposure, peroxide exposure neuronal cell model; type: cell-based; settings: for protection of cell viability against peroxide exposure (FIG. 1, significance): PrestoBlue, H2O2 exposure, rat cortical neuron culture
Method: (§1) Cortical mixed cultures were prepared from E18 Wistar rat embryos (Laboratory Animal Center, Kuopio, Finland). The cortices were dissected out and the tissue was cut to small pieces. The cells were separated by 15-min incubation with DNase and papain. The cells were collected by centrifugation (1500 rpm, 5 min). The tissue was triturated with a pipette and the cells were plated (3×10^5 cells/cm^2) on poly-L-lysine coated 48 wells in MEM supplemented with 2 g/l glucose, 2 mM glutamine, 0.1 μg/ml gentamicin, and 10% heat-inactivated horse serum (HS-HI) and […] bovine serum (FBS-HI). After three days in vitro, medium containing MEM with supplements and 5% both sera was changed to the cells. On day 6 in vitro, the unwanted cell division was inhibited by adding cytosine arabinoside (10 μM final concentration) for 24 h. The cultures were refed with MEM with supplements and 5% HS-HI before experiments.
(§2) The wells in good shape were chosen for experiment on day 10 in vitro. Test compounds were diluted in MEM with supplements and 5% HS-HI. 24 h later, 300 μM NMDA for 24 h was used as a control for total neuronal death, and H2O2 for 1 h was used to induce approximately 30-60% cell death. DFX (100 μM) was used as a potential positive control for inhibition of H2O2-induced cell death. Wells treated with medium only served as 0-control. Test compounds were pipetted to the cells 24 h before adding H2O2. After 60 min, the medium was removed and media containing the compounds was pipetted to the wells for 24 h.
After the cell culture medium was collected for LDH measurement, 100 μl PrestoBlue solution (1:10 dilution of PrestoBlue reagent (Invitrogen, # A13261, lot 915815C) in culture medium) was added to the wells for 1 h incubation at +37° C. CO2 incubator. Fluorescence at 560 nm excitation/615 nm emission was measured using Victor fluororeader (PerkinElmer).
(§3) The number of wells per compound concentration used was 6 (n=6). One (1) concentration of 100 μM TUDCA and 1 mM 4-PBA separately and together were studied. Statistical analysis were calculated on Microsoft excel. The values were analyzed two-tailed, equal variance t-tests comparing all conditions to all other conditions.

[2] = test system: rat cortical neuron culture; assay: Cell death by LDH release after hydrogen peroxide exposure, peroxide exposure neuronal cell model; type: cell-based; settings: for Cell Death Evaluated By LDH Following H2O2 Exposure, Average (%): compounds added 24 h before and for 24 h after, TUDCA 100 uM, 4-PBA 1 mM, DFX 100 uM, n=6, No Treatment = 0%; for protection against cell death after peroxide exposure (FIG. 2, significance): LDH, H2O2 exposure, rat cortical neuron culture
Method: as §1, §2
After 24 h the culture media of all wells was collected and possible cell debris was removed by centrifugation (13 000 rpm, 3 min). A-100-μl aliquot was pipetted into a micro titer plate as duplicates, and equal amount of LDH reagent was pipetted to the wells. The absorbance at 340 nm was measured immediately using a 3-min kinetic measurement protocol in Multiskan Ascent ELISA reader (Thermo, Finland). The change in absorbance/min was determined, which is directly proportional to the released LDH (=cell death).
as §3

[3] = H2O2 40 uM for 1 h, compounds added 24 h before and for 24 h after, TUDCA 100 uM, 4-PBA 1 mM, DFX 100 uM, n=6, No Treatment = 100%
[4] = Rattus norvegicus, Cortical neurone, H2O2 40 uM for 1 h, compounds added 24 h before and for 24 h after, TUDCA 100 uM, 4-PBA 1 mM, DFX 100 uM, n=6, No Treatment = 100%, read-out: Cell Viability Evaluated By PrestoBlue Following H2O2 Exposure, Average (%)

O=C(O)CCCc1ccccc1 [4-PBA, 4-phenylbutyric acid]
Cell Viability Evaluated By PrestoBlue Following H2O2 Exposure, Average (%) [1, 3]: 72.20%
protection of cell viability against peroxide exposure (FIG. 1, significance) [1]: does not provide significant protection
viability at 1000 µM [1, 4]: 72%
Cell Death Evaluated By LDH Following H2O2 Exposure, Average (%) ([2]; H2O2 40 uM for 1 h): 46.5% and 46.47%
protection against cell death after peroxide exposure (FIG. 2, significance) [2]: does not provide significant protection

OO [H2O2, hydrogen peroxide]
viability at 40 µM ([1]; Rattus norvegicus, Cortical neurone, 1 h, H2O2 40 uM for 1 h, no test compound (the text's 'control'), read-out: Cell Viability Evaluated By PrestoBlue, Average (%), H2O2 exposure alone): 48.6%
Cell Death Evaluated By LDH, Average (%), H2O2 exposure alone ([2]; H2O2 40 uM for 1 h, no test compound (the text's 'control')): 62.48%

CN[C@H](CC(=O)O)C(=O)O [NMDA]
Cell Death Evaluated By LDH, Average (%), NMDA negative control ([2]; NMDA 300 uM for 24 h, control for total neuronal death): 100%

C[C@H](CCC(=O)NCCS(=O)(=O)O)[C@H]1CC[C@H]2[C@@H]3[C@@H](O)C[C@@H]4C[C@H](O)CC[C@]4(C)[C@H]3CC[C@]12C [TUDCA, tauroursodeoxycholic acid]
Cell Viability Evaluated By PrestoBlue Following H2O2 Exposure, Average (%) [1, 3]: 58.59%
protection of cell viability against peroxide exposure (FIG. 1, significance) [1]: does not provide significant protection
viability at 100 µM [1, 4]: 59%
Cell Death Evaluated By LDH Following H2O2 Exposure, Average (%) ([2]; H2O2 40 uM for 1 h): 60.4% and 60.37%
protection against cell death after peroxide exposure (FIG. 2, significance) [2]: does not provide significant protection

Source: patent US12186330B2, “Compositions for improving cell viability and methods of use thereof” (Amylyx Pharmaceuticals Inc., priority 2013, dated 2025)
